Literature values in patent US20250120959A1, “NEW FORMULATIONS OF PITOLISANT AND METHODS OF USE” (Bioprojet Pharma, priority 2023, published 2025).
Where a name gives a salt, the structure may show the parent alone.

pKa: approximately 10.5
Compound: Clc1ccc(CCCOCCCN2CCCCC2)cc1 [Formula (Ia), 1-[3-[3-(4-chlorophenyl)propoxy]propyl]-piperidine monohydrochloride]
